# Patent US8304382B2, “Anti-inflammatory and anti-allergic cyclic peptides” (Cristalia Productos Quimicos Farmaceuticos Ltda., priority 2006, dated 2012)
# Test system: leukocyte rolling in post-capillary venules of the cremaster muscle
# Settings: topical, LPS-induced rolling; FIG. 2 and 3
substance,measurement,value
Ile1-Pro2-Arg3-Cys4-Arg5-Lys6-Met7-Pro8-Gly9-Val10-Ala11-Met12-Cys13 [SEQ ID NO: 10],inhibition of leukocyte rolling (in words),not efficient
